From patent US11446317B2, “Inositol phosphate-containing composition” (OTSUKA PHARMACEUTICAL CO., LTD., priority 2017, dated 2022)
“And” between values parts separate entries of the source, which are not always exact repeats. Identical values can stand only once.

What was measured:
[1] = ingestion of 1,400 mg of sodium phytate (1,000 mg as phytic acid); cited from earlier work
[2] = tested on: alkaline phosphatase and 5′nucleotidase (rat small intestine powder); test: Purine nucleotide metabolism inhibition (IMP to inosine) using rat small intestine powder; format: biochemical; settings: pH 6.2 to 6.4, 37° C. 30 minutes
Experimental: The rat small intestine powder contains alkaline phosphatase and 5′nucleotidase as the main digestive enzymes. The inhibition of metabolism of purine nucleotides to purine nucleosides by phytic acid was investigated.
A 100 mg/mL of solution of rat small intestine powder (Clare Japan, Inc.) in the assay buffer (2.37% aqueous solution of Trizma® maleate (Sigma-Aldrich)) was used as the enzyme solution. Inosine monophosphate (IMP) (Sigma-Aldrich) (9 mM) in the assay buffer was used as the substrate solution.
Phytic acid and the assay buffer were mixed, and the pH was adjusted to 6.2 to 6.4 with sodium hydroxide to obtain the sample solutions of each concentration. The control solution was prepared by adjusting the assay buffer to pH 6.2 to 6.4 with sodium hydroxide.
(§1) Enzymatic reaction was performed using a 96 well plate (Thermo Fisher Scientific) in the following manner.
The sample solution or control solution (100 μL/well), the substrate solution (100 μL/well), and the enzyme solution (100 μL/well) were added, and the enzyme reaction was performed at 37° C. for 30 minutes. A 20 μL aliquot of the reaction solution was transferred to multi-screen HTS HV (Merck Millipore), and the reaction was stopped by adding the stop solution (0.33 M HClO4, 180 μL/well). […]

[3] = target: T1, Phosphatase, Alkaline, Calf Intestine (Bos taurus, UniProt P19111); test: Alkaline phosphatase inhibition (IMP to inosine); format: biochemical; settings: sample solution 10 mg/mL, pH 6.2 to 6.4, 37° C. 30 minutes
T1 construct: purchased Merck
T1 sequence (P19111 20-506): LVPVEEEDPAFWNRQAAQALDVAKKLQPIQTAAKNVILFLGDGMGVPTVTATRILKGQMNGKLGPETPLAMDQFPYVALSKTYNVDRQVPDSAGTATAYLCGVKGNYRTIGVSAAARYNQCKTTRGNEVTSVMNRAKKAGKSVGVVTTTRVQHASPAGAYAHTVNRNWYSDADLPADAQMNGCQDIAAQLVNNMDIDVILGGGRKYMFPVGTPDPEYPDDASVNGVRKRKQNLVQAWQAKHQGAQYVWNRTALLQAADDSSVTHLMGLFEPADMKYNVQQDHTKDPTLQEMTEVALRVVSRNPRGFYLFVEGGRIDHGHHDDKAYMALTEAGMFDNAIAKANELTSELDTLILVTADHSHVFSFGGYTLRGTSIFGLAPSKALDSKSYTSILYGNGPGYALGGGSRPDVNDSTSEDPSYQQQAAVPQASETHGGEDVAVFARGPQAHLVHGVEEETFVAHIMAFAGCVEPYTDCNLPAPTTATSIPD
Experimental: Phosphatase, Alkaline, Calf Intestine (Merck) dissolved in the assay buffer (2.37% aqueous solution of Trizma® maleate (Sigma-Aldrich)) at 5.0 U/mL was used as the enzyme solution.
Inosine monophosphate (IMP) (Sigma-Aldrich) dissolved in the assay buffer at 9 mM was used as the substrate solution.
Phytic acid and the assay buffer were mixed, and the pH was adjusted to 6.2 to 6.4 with sodium hydroxide to obtain a sample solution (10 mg/mL). The control solution was prepared by adjusting the assay buffer to pH 6.2 to 6.4 with sodium hydroxide.
as §1
The sample solution or control solution (100 μL/well), the substrate solution (100 μL/well), and the enzyme solution (100 μL/well) were added, and the enzyme reaction was performed at 37° C. for 30 minutes. A 20 μL aliquot of the reaction solution was transferred to multi-screen FITS HV (Merck Millipore), and the reaction was stopped by adding the stop solution (0.33 M HClO4, 180 μl/well). Centrifuge (1080×g for 10 minutes at room temperature) was performed, and the filtrate was subjected to high performance liquid chromatography (HPLC) to determine the amounts of inosine monophosphate and inosine.
The analytical conditions of HPLC are shown below.
Detector: SPD-M 30 A (Shimadzu Corporation) […]

healthy adults [4] = test: High intake test (5 weeks, 3 to 5 bottles per day) in healthy adults; format: in vivo, human; settings: for change in serum iron level: high intake test
Experimental: The subjects (48 healthy adults: 20 to 65 years of age, 16 men, 16 premenopausal women, and 16 postmenopausal women) ingested 5 bottles per day (or 3 to 5 bottles per day depending on the subject's capacity) of test beverage. The test beverage contains 600 mg of phytic acid per bottle (50 mL). The duration of intake was 5 weeks. The first week being a time period to determine each subject's tolerable volume of test beverage, during which time the subjects ingested test beverages while increasing one bottle daily (Up to 5 bottles per day). If 5 bottles/day could not be taken due to taste, volume, etc., the intake volume was determined by each subject, and the intake volume on day 7 was taken as the tolerable volume for each subject, and each subject ingested this tolerable volume (3 to 5 bottles per day) during the remaining study period (4 weeks). Before and 3 weeks, 5 weeks, and 7 weeks (i.e. 2 weeks after the last intake) after the start of the intake, blood pressure of fasting was measured and blood of fasting was collected. The collected blood was measured for each test item by an analysis contractor. Tests for blood pressure, blood glucose, AST, and serum iron compared to 0 week were performed with a paired t-test, and tests for 1, 25-(OH)2-D compared to 0 week were performed with one-way ANOVA followed by Dunnet's multiple comparison method. A two-sided test was performed with a significance level of 5%. The analysis included 44 subjects excluding 2 subjects who withdrew their consent and 2 subjects who were unable to take more than 3 bottles of the test beverage.

healthy adults [5] = test: Low intake test (12 weeks, 1 bottle per day) in healthy adults; format: in vivo, human; settings: for change in serum iron level: low intake test
Experimental: Subjects (39 healthy adults: 20 to 65 years of age, 13 men, premenopausal women, and 13 postmenopausal women) ingested 1 bottle of a test beverage per day for 12 weeks. The test beverage contains 600 mg of phytic acid per bottle (50 mL). Before and 4 weeks, 8 weeks, 12 weeks, and 14 weeks (i.e. 2 weeks after the last intake) after the start of the intake, blood of fasting was collected. The collected blood was measured for each test item by an analysis contractor. Tests for each endpoint compared to 0 week were performed with a paired t-test. Two-sided test was performed with a significance level of 5%.

xanthine oxidase = settings: Non-Patent Document 4, cited from earlier work

## O=P([O-])([O-])O[C@H]1[C@H](OP(=O)([O-])O)[C@H](OP(=O)([O-])[O-])[C@H](OP(=O)([O-])O)[C@@H](OP(=O)([O-])[O-])[C@@H]1OP(=O)([O-])O.[Na+].[Na+].[Na+].[Na+].[Na+].[Na+].[Na+].[Na+].[Na+] [sodium phytate]
[1]
  blood phytic acid concentration at the maximum: 0.12 mg/L and 0.181 μM

## O=P(O)(O)O[C@H]1[C@H](OP(=O)(O)O)[C@@H](OP(=O)(O)O)[C@H](OP(=O)(O)O)[C@@H](OP(=O)(O)O)[C@H]1OP(=O)(O)O [phytic acid]
[2]
  inhibition of metabolism of inosine monophosphate to inosine: inhibits the conversion of purine nucleotides into purine nucleosides
[3]
  inhibition of metabolism of inosine monophosphate to inosine by alkaline phosphatase: inhibits the conversion of purine nucleotides into purine nucleosides
Healthy adults [4]; 5 weeks after ingestion compared with before ingestion
  change in 1,25-(OH)2-D level: significant increase
Healthy adults [4]; high diastolic blood pressure group (86.3 or more at 0 week)
  change in diastolic blood pressure: significant decrease
Healthy adults [4]; high level group (117 or more at 0 week)
  change in serum iron level: significant decreases
Healthy adults [4]; low level group (79 or less at 0 week)
  change in serum iron level: significant rises
Healthy adults [4]; middle level group (79 to 117 at 0 week)
  change in serum iron level: no large changes
Healthy adults [4]; high level group (21 or more at 0 week), 3, 5, and 7 weeks compared with before ingestion
  change in AST level: significant decreases
Healthy adults [4]; high systolic blood pressure group (126 or more at 0 week)
  change in systolic blood pressure: significant decrease
Healthy adults [4]; low diastolic blood pressure group (73.8 or less at 0 week)
  change in diastolic blood pressure: no change
Healthy adults [4]; low level group (17 or less at 0 week), 3 weeks compared with before ingestion, change not large
  change in AST level: significant increase
Healthy adults [4]; low systolic blood pressure group (115.5 or less at 0 week)
  change in systolic blood pressure: no change
Healthy adults [4]; middle diastolic blood pressure group (73.8 to 86.3 at 0 week)
  change in diastolic blood pressure: no change
Healthy adults [4]; middle systolic blood pressure group (115.5 to 126 at 0 week)
  change in systolic blood pressure: significant change but it was not large
Healthy adults [5]; high HbA1c level group (5.5 or more at 0 week)
  change in HbA1c level: significant decrease
Healthy adults [5]; high blood glucose level group (86 or more at 0 week)
  change in blood glucose level: significant decrease
Healthy adults [5]; high level group (132 or more at 0 week)
  change in serum iron level: significant decreases
Healthy adults [5]; low level group (90 or less at 0 week)
  change in serum iron level: significant rises
Healthy adults [5]; middle level group (90 to 132 at 0 week)
  change in serum iron level: no large changes
Xanthine oxidase
  IC50 of inhibition of xanthine oxidase activity (conversion of xanthine to uric acid): ~19.8 mg/mL
Xanthine oxidase; read-out: IC50 of inhibition of xanthine oxidase activity (conversion of xanthine to uric acid)
  IC50: ~30 mM
